# Patent publication US10954255B2, “Phospholipid analogues” (Karl-Franzens-Universitaet Graz, priority 2018, dated 2021)
# “Also recorded” adds a separate entry of the source.
# How the values were obtained:
# [1] = tested on: Human ECs (HUVECs and HUVECtert); assay: Cell survival test, serum deprivation; assay type: cell-based; conditions: M199 without serum, 24 to 49 hrs, FIG. 6-8
# Protocol: Human ECs (HUVECs and HUVECtert) were cultured Nunclon™ Delta surface flasks (Bartelt; Graz, Austria) in the medium M199 (Gibco) supplemented with 20% fetal calf serum (FCS, Gibco; Carlsbad, Calif., USA), penicillin-streptomycin-amphotericin B (PSF, Lonza; Basel, Switzerland), glutamine (Lonza) and ECGS-heparin (PromoCell; Heidelberg, Germany) in the 95% humidified atmosphere with 5% CO2 at 37° C. For stimulation of cells, they were seeded in the same medium in 96-well Nunclon™ Delta plates (Bartelt). On the day 2, the full medium was exchanged to M199 medium without serum but containing lipids (100 μl per well). In experiments on cell survival against hydrogen peroxide, camptothecin or doxorubicin, the full medium was exchanged to M199 containing 7% FCS and OxPAPC at 40 μg/ml or 50 μg/ml added as a two-fold concentrated solution (50 μl per well). After 20 to 30 min preincubation, toxic agents were added also as two-fold concentrated solutions in M199/7% FCS (50 μl per well). After 16 to 72 hrs of cell incubation at 37° C. and 5% CO2 in 95% humidity, either a nuclei counting of the remained cells or an XTT assay were performed. For the nuclei counting, the medium containing dead cells was aspirated and a Hoechst 33342 solution at the concentration of 1 μg/ml in PBS containing Ca^2+ and Mg^2+ (50 μl per well) was added. After at least 20 min incubation of cells at 37° C. in the cell culture incubator, the stained nuclei were counted using the EnSight plate reader (Perkin-Elmer; Waltham, Mass., USA). An XTT assay with the incubation time of 2 hrs was performed as described (Oskolkova, Godschachner and Bochkov, Inflammation 2017; 40(2): 530-536).
# OxPLs protect endothelial cells (ECs) against serum deprivation. ECs were seeded in full M199 medium containing 20% serum. On the day 2, the medium was exchanged to M199 without serum and containing phospholipids at increasing concentrations. After 48 hrs, nuclei of remaining cells were stained by Hoechst and counted. Cells treated with 20% FCS serve as positive and with PBS as negative controls, respectively.
# ECs were treated as described in Example 13. After 24 hrs, nuclei of remaining cells were stained by Hoechst 33342 and counted. Cells treated with OxPAPC and 20% FCS serve as positive and with PBS as negative controls, respectively.
# ECs were treated with increasing concentrations of OxAA as described in Example 13. After 49 hrs, nuclei of remaining cells were stained by Hoechst 33342 and counted. Cells treated with 20% FCS or with 20 μM OxPAPC serve as positive and with PBS as negative controls, respectively.
# [2] = tested on: LPS-induced chemokine KC; assay: Induction of chemokine KC in plasma of mice injected with LPS; assay type: in vivo; conditions: phospholipid 200 μg/mouse i.p. with LPS 20 μg/mouse, blood after 2 and 4 hrs, FIG. 2
# Protocol: Experiments were performed according to Austrian animal rights law using female C57BL/6J mice (Jackson Laboratories, Germany) of 20 g body weight. Mice were injected i.p. with 200 μl of either with saline, phospholipid (200 μg/mouse), LPS (Escherichia coli O55:B5, 20 μg/mouse) or a combination of LPS and the phospholipid. After 2 and 4 hrs blood was taken retroorbitaly and placed into Eppendorf tubes containing EDTA. After centrifugation of cells, plasma was collected and analyzed by ELISA for murine KC.
# [3] = tested on: human pulmonary artery endothelial monolayers; assay: Endothelial monolayer permeability, transendothelial electrical resistance (TER); assay type: cell-based; conditions: for endothelial barrier-protective effect compared with free iloprost (TER): 0.5 μM, post-treatment 15 min or 5 hrs after LPS 200 ng/ml, monitored over 20 hours, FIG. 4
# Protocol: The cellular barrier properties were analyzed by measurements of transendothelial electrical resistance (TER) across confluent human pulmonary artery endothelial monolayers using an electrical cell-substrate impedance sensing system (Applied Biophysics, USA) as previously described (Birukova A A et al., Am. J. Physiol. Lung Cell. Mol. Physiol. 2006, 290(3):L540-548; Birukova A A et al. FASEB J. 2004, 18(15):1879-1890).
# [4] = tested on: LPS-induced lung injury; assay: LPS-induced lung injury and vascular barrier dysfunction in mice (BAL, TNFα, optical imaging); assay type: in vivo; conditions: 10 μg/kg i.v. concurrently and 5 hrs after LPS i.t., day 1 and day 3, FIG. 5
# Protocol: Eight-week old C57B1 mice were purchased from Jackson Laboratories (Bar Harbor, USA). Animals were handled according to the National Institutes of Health Guide for the Care and Use of Laboratory Animals. Bacterial lipopolysaccharide (LPS, 0.63 mg/kg body wt; Escherichia coli O55:B5) or sterile water was injected intratracheally in a small volume (20-30 μl) using a 20-gauge catheter (Exelint International, USA). Iloprost (10 μg/kg), ILO-PC (10 μg/kg) or sterile saline solution was administrated concurrently and 5 hrs after LPS instillation by intravenous injection in the external jugular vein. Animals were sacrificed at day-1 or day-3 by exsanguination under anesthesia. BAL was performed using 1 ml of sterile Hanks balanced salt buffer and measurements of cell count and protein concentration were conducted as previously described (Fu P et al., Eur. Respir. J. 2009, 33:612-624). […]
# In vivo optical imaging: Mice were injected with 100 μl of 2 nmol Angiosense 680 EX (a vascular fluorescent blood pool imaging agent purchased from PerkinElmer, USA), intravenously via tail vein. Fluorescence optical imaging was performed in the Integrated Small Animal Imaging Research Resource (iSAIRR) at the University of Chicago using Xenogen IVIS 200 Spectrum (Caliper Life Sciences, USA). […]
compound,measurement,setting,value
"CCCCCCCCCCCCCCCCOCC(COP(=O)(O)OCC[N+](C)(C)C)NC(=O)CCC/C=C\C[C@H]1C(=O)C[C@@H](O)[C@@H]1/C=C/[C@@H](O)CCCCC (stereo partly shown) [KFU-PGE2, 1-O-Hexadecyl-2-deoxy-2-(prostaglandin E2)amino-sn-glycero-3-phosphocholine]","protection of ECs against serum deprivation (nuclei counting, Hoechst 33342)",[1],protective effects
same,induction of inflammatory chemokine KC in plasma (LPS-induced inflammation in vivo),[2],inhibits induction of inflammatory chemokine KC
same,endothelial barrier protection/enhancement (TER),"[3]; cultured endothelial cells, two concentrations, FIG. 3",protects endothelial cell barrier
"CCCCCCCCCCCCCCCCOCC(COP(=O)(O)OCC[N+](C)(C)C)NC(=O)CCC/C=C\C[C@@H]1[C@@H](/C=C/[C@@H](O)CCCCC)[C@H](O)C[C@@H]1O (stereo partly drawn) [KFU-PGF2α, 1-O-Hexadecyl-2-deoxy-2-(prostaglandin F2α)amino-sn-glycero-3-phosphocholine]","protection of ECs against serum deprivation (nuclei counting, Hoechst 33342)",[1],protective effects
"CCCCCCCCCCCCCCCCOCC(COP(=O)(O)OCC[N+](C)(C)C)NC(=O)CCC/C=C\C[C@@H]1C(=O)C=C[C@@H]1/C=C/[C@@H](O)CCCCC (stereo partly shown) [KFU-iPGA2, 1-O-Hexadecyl-2-deoxy-2-(8-iso-prostaglandin A2)amino-sn-glycero-3-phosphocholine]","protection of ECs against serum deprivation (nuclei counting, Hoechst 33342)",[1]; listed as iPGA2-NH-PC,protective effects; also recorded: protect ECs against serum deprivation
"CC#CCC(C)[C@H](O)/C=C/[C@@H]1C2C/C(=C/CCCC(=O)NC(COCCCCCCCCCCCCCCCC)COP(=O)(O)OCC[N+](C)(C)C)CC2C[C@H]1O (stereo partly shown) [KFU-iloprost, 1-O-Hexadecyl-2-deoxy-2-(iloprost)amino-sn-glycero-3-phosphocholine]","protection from LPS-induced lung injury, barrier dysfunction and edema compared with free iloprost",[4],better protection from edema in vivo as compared to free molecule
same,"protection from LPS-induced lung injury, barrier dysfunction and edema compared with free iloprost",[4]; listed as KFU-ILO,better protective response on LPS-induced lung injury and barrier dysfunction compared to a free molecule
same,endothelial barrier-protective effect compared with free iloprost (TER),[3],stronger endothelial barrier-protective effect than free Iloprost
same,endothelial barrier-protective effect compared with free iloprost (TER),[3]; listed as KFU-conjugated iloprost,stronger and more prolonged barrier-protective activity as compared to free iloprost
"CCCCC[C@H](O)/C=C/[C@H]1C=CC(=O)[C@H]1C/C=C\CCCC(=O)O [iPGA2, 8-iso-prostaglandin A2, reference compound]","protection of ECs against serum deprivation (nuclei counting, Hoechst 33342)",[1],not active; also recorded: not protective
